Where a name gives a salt, the structure may show the parent alone. Read-outs that look alike come from different tables or passages of the source.
Tests used:
[1] = test system: HBV; assay: In vitro combination study in HepG2.2.15 cells; assay type: cell-based, hepatitis B virus; details: for interference with HBsAg inhibition by AB-161: HepG2.2.15, combined with AB-161; for effect on the levels of HBsAg: HepG2.2.15, compound alone; for Antagonism / Synergy / Conclusion (combination effect): Inhibitor A combined with AB-161, HBV DNA; for Antagonism / Synergy: 99.9% confidence; for Conclusion (combination effect): Prichard and Shipman criteria
[2] = test system: HBV; assay: HBV life cycle analysis in HepG2.2.15 cells; assay type: cell-based, hepatitis B virus; details: ETV 1 μM, GLS4 1 μM, AB-161 100 nM
[3] = test system: Wild-type HBV; assay: HBV polymerase variant phenotyping in Huh-7: wild-type; details: Hepatitis B virus, Huh-7, read-out: HBV DNA, EC50
[4] = test system: rats; details: rat, in vivo; cited from earlier work
[5] = test system: dogs; details: dog, in vivo; cited from earlier work
[6] = plasma, cited from earlier work
[7] = test system: rats; details: cited from earlier work
[8] = test system: monkeys; design: method as in earlier work; details: 9 months dosing; cited from earlier work

## C=C1[C@H](CO)[C@@H](O)C[C@@H]1n1cnc2c(=O)[nH]c(N)nc21 [ETV, entecavir]
[1]
  interference with HBsAg inhibition by AB-161: did not interfere
  effect on the levels of HBsAg: do not affect
  Antagonism: −3.99 ± 3.59 µM^2%
  Synergy: 0.00 ± 0.00 µM^2%
  Conclusion (combination effect): Additive
[1]; Hepatitis B virus, HepG2.2.15, read-out: Inhibitor A EC50
  EC50: 5.1 ± 1.1 nM
[2]
  HBV DNA replication: profoundly inhibited
  intracellular HBV RNA (pgRNA, preS/S RNA): no effect
  viral proteins: HBV core and capsid assembly: no effect
[3]
  EC50: 17 nM

## CCOC(=O)C1=C(CN2CCOCC2)NC(c2nccs2)=NC1c1ccc(F)cc1Br (centres unmarked) [GLS4]
[2]
  HBV DNA replication: substantially reduced
  intracellular HBV RNA (pgRNA, preS/S RNA): no effect
  viral proteins: HBV core and capsid assembly: substantially reduced

## CC(C)OC(=O)OCOP(=O)(CO[C@H](C)Cn1cnc2c(N)ncnc21)OCOC(=O)OC(C)C [TDF, tenofovir disoproxil fumarate]
[1]
  interference with HBsAg inhibition by AB-161: did not interfere
  effect on the levels of HBsAg: do not affect
  Antagonism: −0.43 ± 0.744 µM^2%
  Synergy: 0.00 ± 0.00 µM^2%
  Conclusion (combination effect): Additive

## COCCCOc1cc2c(nc1OC)-c1cc(=O)c(C(=O)O)cn1[C@H](C(C)C)C2 [AB-452, (S)-6-Isopropyl-2-methoxy-3-(3-methoxypropoxy)-10-oxo-5,10-dihydro-6H-pyrido [1,2-h][1,7]naphthyridine-9-carboxylic Acid]
[4]
  findings in male reproductive tissues: Decreased epididymis and minimal-to-mild spermatid depletion
  histopathology of sciatic nerves: axonal degeneration
[5]
  histopathology of spinal nerves: axonal degeneration
[6]
  protein binding: ~50%

## COCCCOc1cc2c(cc1OC)-c1cc(=O)c(C(=O)O)cn1[C@H](C(C)C)C2 [RG7834]
[7]; 6 months dosing
  neurotoxicity: dose- and time-dependent neurotoxicity
[7]
  male reproductive adverse events: abnormal sperm and testicular changes
[6]; species not stated
  protein binding: ~56%
[8]
  neurotoxicity: dose- and time-dependent neurotoxicity
